Legend:
[1] = test system: Puccinia recondita f. sp. tritici; assay: Test I: wheat leaf rust, preventive spray on wheat seedlings, visual disease rating; settings: for pest or weed control at 200 µg/mL: 192 h, read-out: Test I disease control rating
Text: General protocol for preparing test suspensions for Tests A-J: the test compounds were first dissolved in acetone in an amount equal to 3% of the final volume and then suspended at the desired concentration (in ppm) in acetone and purified water (50/50 mix by volume) containing 250 ppm of the surfactant Trem® 014 (polyhydric alcohol esters). The resulting test suspensions were then used in Tests A-J. Spraying a 200 ppm test suspension to the point of run-off on the test plants was the equivalent of a rate of 500 g/ha. Unless otherwise indicated, the rating values indicate a 200 ppm test suspension was used. (An asterisk “*” next to the rating value indicates a 40 ppm test suspension was used.)
The test suspension was sprayed to the point of run-off on wheat seedlings. The following day the seedlings were inoculated with a spore suspension of Puccinia recondita f. sp. tritici (the causal agent of wheat leaf rust) and incubated in a saturated atmosphere at 20° C. for 24 h, and then moved to a growth chamber at 20° C. for 7 days, after which time visual disease ratings were made
A dash (-) indicates no test results.

Botrytis cinerea = assay: Test B: tomato Botrytis, preventive spray on tomato seedlings, visual disease rating; settings: for pest or weed control at 200 µg/mL: Botrytis cinerea, in Solanum lycopersicum, 120 h, read-out: Test B disease control rating
Septoria tritici = assay: Test G: wheat leaf blotch, preventive spray on wheat seedlings, visual disease rating; settings: for pest or weed control at 200 µg/mL: Zymoseptoria tritici, in Triticum aestivum, 504 h, read-out: Test G disease control rating
Alternaria solani = assay: Test C: tomato early blight, preventive spray on tomato seedlings, visual disease rating; settings: for pest or weed control at 200 µg/mL: Alternaria solani, in Solanum lycopersicum, 168 h, read-out: Test C disease control rating
[2] = test system: Erysiphe graminis f sp. tritici; assay: Test J: wheat powdery mildew, preventive spray on wheat seedlings, visual disease rating; settings: for pest or weed control at 200 µg/mL: Blumeria graminis, in Triticum aestivum, 192 h, read-out: Test J disease control rating
Septoria nodorum = assay: Test F: Septoria glume blotch, preventive spray on wheat seedlings, visual disease rating; settings: for pest or weed control at 200 µg/mL: Parastagonospora nodorum, in Triticum aestivum, 192 h, read-out: Test F disease control rating
[3] = test system: Puccinia recondita f. sp. tritici; assay: Test H: wheat leaf rust, curative spray on inoculated wheat seedlings, visual disease rating; settings: for pest or weed control at 200 µg/mL: 144 h, read-out: Test H disease control rating
[4] = wheat leaf rust, preventive spray, 100 = 100% disease control, 0 = no control
[5] = tomato Botrytis, preventive spray, 100 = 100% disease control, 0 = no control
[6] = wheat leaf blotch, preventive spray, 100 = 100% disease control, 0 = no control
[7] = tomato early blight, preventive spray, 100 = 100% disease control, 0 = no control
[8] = wheat powdery mildew, preventive spray, 100 = 100% disease control, 0 = no control
[9] = Septoria glume blotch on wheat, preventive spray, 100 = 100% disease control, 0 = no control
[10] = wheat leaf rust, curative spray, 100 = 100% disease control, 0 = no control
[11] = wheat leaf rust, preventive, 100 = 100% disease control, 0 = no control relative to controls
[12] = tomato Botrytis, 100 = 100% disease control, 0 = no control relative to controls
[13] = wheat leaf blotch, 100 = 100% disease control, 0 = no control relative to controls
[14] = tomato early blight, 100 = 100% disease control, 0 = no control relative to controls
[15] = wheat powdery mildew, 100 = 100% disease control, 0 = no control relative to controls
[16] = Septoria glume blotch, 100 = 100% disease control, 0 = no control relative to controls
[17] = wheat leaf rust, curative, 100 = 100% disease control, 0 = no control relative to controls

Cc1nn(C)c(Nc2cc(F)c(F)c(F)c2)c1-c1ccc(F)cc1Cl [compound 132]
Test I rating (% disease control) [1, 4]: 94%
Test B rating (% disease control) (Botrytis cinerea; [5]): 99%
Test G rating (% disease control) (Septoria tritici; [6]): 100%
Test C rating (% disease control) (Alternaria solani; [7]): 0%
Test J rating (% disease control) [2, 8]: 92%
Test F rating (% disease control) (Septoria nodorum; [9]): 0%
Test H rating (% disease control) [3, 10]: 0%

COc1ccc(-c2c(C)nn(C)c2Nc2c(F)ccc(F)c2F)c(Cl)c1 [compound 174]
Test I rating (% disease control) [1, 11]: 97%
Test B rating (% disease control) (Botrytis cinerea; [12]): 100%
Test G rating (% disease control) (Septoria tritici; [13]): 96%
Test C rating (% disease control) (Alternaria solani; [14]): 99%
Test J rating (% disease control) [2, 15]: 99%
Test F rating (% disease control) (Septoria nodorum; [16]): 0%
Test H rating (% disease control) [3, 17]: 0%

COc1cc(Nc2c(-c3c(F)cc(C#N)cc3F)c(C)nn2C)ccc1F [compound 127]
Test I rating (% disease control) [1, 4]: 68%
Test B rating (% disease control) (Botrytis cinerea; [5]): 70%
Test G rating (% disease control) (Septoria tritici; [6]): 99%
Test C rating (% disease control) (Alternaria solani; [7]): 0%
Test J rating (% disease control) [2, 8]: 0%
Test F rating (% disease control) (Septoria nodorum; [9]): 0%
Test H rating (% disease control) [3, 10]: 0%

Cc1nn(C)c(Nc2c(F)ccc(F)c2F)c1-c1ccc(F)cc1Cl [compound 171]
Test I rating (% disease control) [1, 11]: 99%
Test B rating (% disease control) (Botrytis cinerea; [12]): 100%
Test G rating (% disease control) (Septoria tritici; [13]): 97%
Test C rating (% disease control) (Alternaria solani; [14]): 97%
Test J rating (% disease control) [2, 15]: 100%
Test F rating (% disease control) (Septoria nodorum; [16]): 0%
Test H rating (% disease control) [3, 17]: 68%

Cc1cc(Oc2c(-c3c(F)cc(F)cc3F)c(C)nn2C)ccc1Cl [compound 157]
Test I rating (% disease control) [1, 11]: 54%
Test B rating (% disease control) (Botrytis cinerea; [12]): 0%
Test G rating (% disease control) (Septoria tritici; [13]): 0%
Test C rating (% disease control) (Alternaria solani; [14]): 0%
Test J rating (% disease control) [2, 15]: 73%
Test F rating (% disease control) (Septoria nodorum; [16]): 0%
Test H rating (% disease control) [3, 17]: 0%

COc1cc(F)c(-c2c(C)nn(C)c2Oc2ccc(C)c(OC)c2)c(F)c1 [compound 249]
Test I rating (% disease control) [1, 11]: 96%
Test B rating (% disease control) (Botrytis cinerea; [12]): 40%
Test G rating (% disease control) (Septoria tritici; [13]): 99%
Test C rating (% disease control) (Alternaria solani; [14]): 0%
Test J rating (% disease control) [2, 15]: 100%
Test F rating (% disease control) (Septoria nodorum; [16]): 0%
Test H rating (% disease control) [3, 17]: 0%

Cc1nn(C)c(Nc2ccc(F)c(C#N)c2)c1-c1ccc(F)cc1Cl [compound 234]
Test I rating (% disease control) [1, 11]: 92%
Test B rating (% disease control) (Botrytis cinerea; [12]): 99%
Test G rating (% disease control) (Septoria tritici; [13]): 99%
Test C rating (% disease control) (Alternaria solani; [14]): 0%
Test J rating (% disease control) [2, 15]: 84%
Test F rating (% disease control) (Septoria nodorum; [16]): 0%
Test H rating (% disease control) [3, 17]: 0%

Cc1nn(C)c(Nc2c(F)cccc2F)c1-c1c(F)cccc1F [compound 247]
Test I rating (% disease control) [1, 11]: 99%
Test B rating (% disease control) (Botrytis cinerea; [12]): 100%
Test G rating (% disease control) (Septoria tritici; [13]): 100%
Test C rating (% disease control) (Alternaria solani; [14]): 99%
Test J rating (% disease control) [2, 15]: 100%
Test F rating (% disease control) (Septoria nodorum; [16]): 60%
Test H rating (% disease control) [3, 17]: 0%

Cc1nn(C)c(Oc2ccc([N+](=O)[O-])cc2)c1-c1c(F)cc(F)cc1F [compound 26]
Test I rating (% disease control) [1, 4]: 99%
Test B rating (% disease control) (Botrytis cinerea; [5]): 99%
Test G rating (% disease control) (Septoria tritici; [6]): 100%
Test C rating (% disease control) (Alternaria solani; [7]): 83%
Test J rating (% disease control) [2, 8]: 100%
Test F rating (% disease control) (Septoria nodorum; [9]): 0%
Test H rating (% disease control) [3, 10]: 0%

Cc1nn(C)c(Nc2ccc(F)cc2Cl)c1-c1ccc(Cl)cc1Cl [compound 354]
Test I disease control rating ([1]; wheat leaf rust, sprayed the day before inoculation, 100 = 100% disease control, 0 = no disease control relative to controls): 98%
Test B disease control rating (Botrytis cinerea; tomato Botrytis, 100 = 100% disease control, 0 = no disease control relative to controls): 99%
Test G disease control rating (Septoria tritici; wheat leaf blotch, sprayed the day before inoculation, 100 = 100% disease control, 0 = no disease control relative to controls): 100%
Test C disease control rating (Alternaria solani; tomato early blight, 100 = 100% disease control, 0 = no disease control relative to controls): 0%
Test J disease control rating ([2]; wheat powdery mildew, sprayed the day before inoculation, 100 = 100% disease control, 0 = no disease control relative to controls): 100%
Test F disease control rating (Septoria nodorum; Septoria glume blotch on wheat, 100 = 100% disease control, 0 = no disease control relative to controls): 0%
Test H disease control rating ([3]; wheat leaf rust, sprayed after inoculation, 100 = 100% disease control, 0 = no disease control relative to controls): 82%

COc1cc(F)ccc1-c1c(C)nn(C)c1Oc1c(F)cc(C#N)cc1F [compound 89]
Test I rating (% disease control) [1, 4]: 0%
Test B rating (% disease control) (Botrytis cinerea; [5]): 99%
Test G rating (% disease control) (Septoria tritici; [6]): 99%
Test C rating (% disease control) (Alternaria solani; [7]): 0%
Test J rating (% disease control) [2, 8]: 97%
Test F rating (% disease control) (Septoria nodorum; [9]): 0%
Test H rating (% disease control) [3, 10]: 0%

Cc1nn(C)c(Nc2c(F)cc(Br)cc2F)c1-c1ccc(F)cc1Cl [Compound 365, N-(4-bromo-2,6-difluorophenyl)-4-(2-chloro-4-fluorophenyl)-1,3-dimethyl-1H-pyrazol-5-amine]
pest or weed control at 200 µg/mL [1]: 100%
pest or weed control at 200 µg/mL (Botrytis cinerea): 100%
pest or weed control at 200 µg/mL (Septoria tritici): 100%
pest or weed control at 200 µg/mL (Alternaria solani): 99%
pest or weed control at 200 µg/mL [2]: 100%
pest or weed control at 200 µg/mL (Septoria nodorum): 64%
pest or weed control at 200 µg/mL [3]: 74%

Cc1nn(C)c(Oc2cc(F)c(C#N)cc2F)c1-c1ccc(F)cc1Br [compound 233]
Test I rating (% disease control) [1, 11]: 100%
Test B rating (% disease control) (Botrytis cinerea; [12]): 100%
Test G rating (% disease control) (Septoria tritici; [13]): 100%
Test C rating (% disease control) (Alternaria solani; [14]): 99%
Test J rating (% disease control) [2, 15]: 100%
Test F rating (% disease control) (Septoria nodorum; [16]): 99%
Test H rating (% disease control) [3, 17]: 0%

Cc1nn(C)c(Nc2c(F)cc(F)cc2Cl)c1-c1ccc(F)cc1F [Compound 343, N-(2-chloro-4,6-difluorophenyl)-4-(2,4-difluorophenyl)-1,3-dimethyl-1H-pyrazol-5-amine]
pest or weed control at 200 µg/mL [1]: 100%
pest or weed control at 200 µg/mL (Botrytis cinerea): 100%
pest or weed control at 200 µg/mL (Septoria tritici): 100%
pest or weed control at 200 µg/mL (Alternaria solani): 100%
pest or weed control at 200 µg/mL [2]: 100%
pest or weed control at 200 µg/mL (Septoria nodorum): 97%
pest or weed control at 200 µg/mL [3]: 91%

Cc1nn(C)c(Nc2cc(Cl)ccc2Cl)c1-c1ccc(F)cc1F [compound 245]
Test I rating (% disease control) [1, 11]: 68%
Test B rating (% disease control) (Botrytis cinerea; [12]): 90%
Test G rating (% disease control) (Septoria tritici; [13]): 97%
Test C rating (% disease control) (Alternaria solani; [14]): 0%
Test J rating (% disease control) [2, 15]: 93%
Test F rating (% disease control) (Septoria nodorum; [16]): 0%
Test H rating (% disease control) [3, 17]: 0%

Source: patent publication US10448639B2, “Fungicidal pyrazoles” (FMC CORPORATION, priority 2009, dated 2019)
